Key:
[1] = system: ubiquitinated proteins, Bax, p27, IκBα in Jurkat T cells; assay: Western blot for ubiquitinated proteins and proteasome targets (Bax, p27, IκBα) in Jurkat T cells; type: cell-based, human; settings: 25 μM, 24 h
Procedure: (§1) Whole cells extracts were prepared as described previously (An B, Goldfarb R H, Siman R, Dou Q P. Novel dipeptidyl proteasome inhibitors overcome Bc1-2 protective function and selectively accumulate the cyclin-dependent kinase inhibitor p27 and induce apoptosis in transformed, but not normal, human fibroblasts. Cell Death Differ 1998; 5: 1062-75.). Analysis of Bax, IKBa, p27, PAW, and ubiquitinated protein expression were performed using monoclonal or polyclonal antibodies according to previously reported protocols (An B et. al.).
To determine what effects the synthetic tea analogs had on the proteasome in vivo, Jurkat cells were treated with 25 μM of each synthetic compound for either 4 or 24 h, with (−)-EGCG as a control (FIGS. 9A and 9B). […] This is consistent with the idea that protected analogs are potent inhibitors of the proteasome at an earlier time point and that after 24 h of treatment the ubiquitinated proteins are being depleted by deubiquitinating enzymes. […] The putative ubiquitinated IκBα band is still found in cells treated with 2a, 3a, and 4a (FIG. 9B, Lanes 9, 5, 7). The presumed ubiquinated IκBα band is now absent in the 24 h treatment, possibly due to deubiquitination (FIG. 9B). Actin was used as a loading control in this experiment.
The pro-apoptotic protein Bax and the cyclin-dependent kinase inhibitor p27 are natural proteasome targets. If the peracetate-protected polyphenols inhibit the intact proteasome activity, we would expect accumulation of Bax and p27 in these cells. To test this idea, Jurkat T cells were treated with both protected and unprotected compounds and lysates were analyzed by Western blot using specific antibodies to Bax and p27 (FIG. 15). After 4 h of treatment, the peracetate-protected analogs 24* and 19*, but not their unprotected analogs, were able to increase accumulation of both Bax (by 3- and 2.5-fold, respectively) and p27 (6- and 11-fold, respectively) (FIG. 15A). After 24 h treatment, Bax levels were increased in cells treated with all of the peracetate-protected compounds (13-, 12-, 40- and 36-fold, respectively, by 24*, 19*, 21* and 23*).

Jurkat T cells [2] = assay: Trypan blue cell death assay in Jurkat T cells; type: cell-based, human; settings: 25 μM, 24 h
Jurkat T cells [3] = assay: Western blot for PARP cleavage in Jurkat T cells; type: cell-based, human; settings: 25 μM, 24 h
Procedure: as §1
(§2) It has been shown that proteasome inhibition can induce apoptosis in a wide variety of cancer cells, but not in normal, non-transformed cells (An B et al). Jurkat T cells are treated with 25 μM of each of the selected polyphenols and their protected analogs for 24 h to investigate their abilities to induce apoptotic cell death. […] The unprotected 2 induced much less apoptosis (21%), while 25 μM VP-16, used as a positive control, induced 92% apoptosis (FIGS. 10C and 10D). Counterstain with DAPI, which binds to the minor groove in A-T rich regions of DNA, was decreased drastically in apoptotic cells (FIG. 10C), consistent with DNA fragmentation in late stage apoptosis.
To determine if the cell death observed (FIG. 16) was due to the induction of apoptosis, a similar experiment was performed in Jurkat T cells, followed by measurement of caspase-3 activation and PARP cleavage.

MCF-7 cells = assay: MTT assay; type: cell-based, human; settings: 24 h
Procedure: MTT was used to determine effects of polyphenols on overall proliferation of tumor cells. Human breast MCF-7 cells were plated in a 96 well plate and grown to 70-80% confluency, followed by addition of analogs for 24 h. MTT (1 mg/ml) in PBS was then added to wells and incubated at 37° C. for 4 hours to allow for complete cleavage of the tetrazolium salt by metabolically active cells. Next, the MTT was removed and 100 μl of DMSO was added and colorimetric analysis performed using a multilabel plate reader at 560 nm (Victor^3; Perkin Elmer). Absorbance values plotted are the mean from triplicate experiments.
Treated breast cancer (MCF-7) cells were then treated with 5 or 25 μM of peracetate-protected analogs for 24 h, followed by MTT analysis to determine their effects on cell proliferation. Compound 1 at 25 μM inhibited cellular proliferation by 40% (FIG. 11A).

LNCaP cells [4] = assay: Apoptotic morphological changes, phase contrast; type: cell-based, human; settings: 25 μM, 24 h
[5] = system: ubiquitin-conjugated proteins in LNCaP cells; assay: Western blot for ubiquitin-conjugated proteins in LNCaP cells; type: cell-based, human; settings: 25 μM, 24 h
Procedure: as §1
To determine if acetate-protected analogs are potent proteasome inhibitors in other cancer cell systems, prostate cancer LNCaP cells were treated for 24 h with 25 μM of (−)-EGCG, 1, 2a, or 3a, with DMSO as a control.

VA-13 cells [6] = assay: Immunostaining of apoptotic cells with anti-cleaved PARP-FITC; type: cell-based, human; settings: 25 μM, 24 h
Procedure: Immunostaining of apoptotic cells was performed by addition of a FITC-conjugated polyclonal antibody that recognizes cleaved poly(ADP-ribose) polymerase (PARP) and visualized on an Axiovert 2 5 (Zeiss; Thornwood, N.Y.) microscope. Cells were grown to about 80% confluency in 60 mm dishes. VA-13 cells were then treated with VP-16, 2, or 2a (25 μM) for 24 h. Following treatment, both suspension and adhering cells were collected and washed twice in PBS pH 7.4. The cells were washed between all steps listed below and all washes are 1 min duration with PBS. Cells were then fixed in ice-cold 70% ethanol, permeabilized in 0.1% Triton-X-100 and blocked for 30 min in 1% bovine serum albumin (BSA) at room temperature. Incubation with the primary FITC-conjugated-p85/PARP antibody was for 30 min at 4° C. in the dark with mild shaking. Cell suspension was then transferred to glass slides in the presence of Vector Shield mounting medium with DAPI. Images were captured using AxioVision 4.1 and adjusted using Adobe Photoshop 6.0 software. Cell death was quantified by counting the number of apoptotic cells over the total number of cells in the same field. Data are mean of duplicate experiments ±SD.
as §2

LNCaP cells [7] = assay: Soft agar colony formation assay; type: cell-based, human; settings: 25 μM once at plating, 21 days
[8] = target: T1, proteasome in VA-13 cells (Homo sapiens, UniProt P28074); assay: Chymotrypsin-like proteasome activity in intact VA-13 cells; type: cell-based; settings: 25 μM, 24 h
T1 construct: endogenous in cells; host or cells: VA-13 (SV40-transformed human fibroblasts)
Procedure: VA-13 or WI-38 cells were grown in 24 well plates (2 ml/well) to 70-80% confluency, followed by 24 h treatment with […] (−)-EGCG, 2, or 2a. […] Suc-Leu-Leu-Val-Tyr-AMC substrate was then added for 2.5 h at 37° C. and the chyrnotrypsin-like activity was measured as described above. Alternatively, cells were treated with each compound at 25 μM for 4 or 24 h, and harvested and lysed. Suc-Leu-Leu-Val-Tyr-AMC (40 μM) was then incubated with the prepared cell lysates for 2.5 h and the chymotrypsin-like activity was measured as described above.
The ability to induce apoptosis in tumor cells, but not normal cells is an important measure for novel anti-cancer drugs. To determine whether the protected compounds also affect normal cells, both VA-13 and WI-38 cells were treated with 25 μM of (−)-EGCG, 2, or 2a for 24 h and examined proteasome activity, nuclear morphological changes, and detachment. A differential decrease was found in the chyrnotrypsin-like activity of the proteasome in VA-13 cells over normal WI-38 cells (FIG. 12A). […] Conversely, the proteasome activity in WI-38 cells was decreased by only −5% with all three polyphenol treatments.

VA-13 cells [9] = assay: Nuclear staining (Hoechst) for apoptotic morphology, VA-13; type: cell-based, human; settings: 25 μM, 24 h
Procedure: After each drug treatment, both detached and attached VA-13 and WI-38 cells were stained Hoechst 33342 to assess for apoptosis. Briefly, cells were washed 2× in PBS, fixed for 1 h with 70% ethanol at 4° C., washed 3× in PBS, and stained with […] Hoechst for 30 min in the dark at room temperature. Detached cells were plated on a slide and attached cells were visualized on the plate with a fluorescent microscope at 10× or 40× resolution (Zeiss, Germany). Digital Scientific obtained images with AxioVision 4.1 and adjusted using Adobe Photoshop 6.0.
Next, apoptotic nuclear morphology is examined after treatment with natural (−)-EGCG, 2, and 2a (FIG. 12B). […] A comparison among all the protected analogs was then performed using 25 μM for 24 h. […] All of the protected analogs induced apoptosis in transformed (VA-13), but not normal (WI-38) cells (FIGS. 12B and 12C).

YT cells = assay: Western blot in non-transformed natural killer YT cells compared with Jurkat T cells; type: cell-based, human; settings: 25 μM, 24 h

Structure (SMILES) | accumulation of p27 [1] | cell death (trypan blue) (Jurkat T cells [2]) [%] | apoptosis-specific PARP cleavage (Jurkat T cells [3]) | inhibition of cellular proliferation (MCF-7 cells; 5 μM) [%] | inhibition of cellular proliferation (MCF-7 cells; 25 μM) [%] | apoptotic morphological changes (LNCaP cells [4]) | ubiquitin-conjugated proteins [5] | apoptotic cells (p85 cleaved PARP) (VA-13 cells [6]) [%] | colony formation in soft agar (LNCaP cells [7]) | decrease in proteasome chymotrypsin-like activity [8] [%] | apoptotic nuclear morphology (VA-13 cells [9]) | apoptosis (PARP cleavage), Jurkat T versus YT cells (YT cells)
CC(=O)Oc1ccc(C(=O)O[C@@H]2Cc3c(OC(C)=O)cc(OC(C)=O)cc3O[C@H]2c2cc(OC(C)=O)c(OC(C)=O)c(OC(C)=O)c2)cc1 (relative stereo) [Compound 3a, (2S*,3R*)-trans-5,7-Bis(acetyloxy)-2-[3,4,5-tris(acetyloxy)phenyl]chroman-3-yl 4-(acetyloxy)benzoate] | Accumulation of p27 | 57 | induced apoptosis-specific PARP cleavage | 50 | 70 | dramatic round-up, detachment, and cellular fragmentation | greatest increase | – | – | – | – | –
CC(=O)Oc1cccc(C(=O)O[C@@H]2Cc3c(OC(C)=O)cc(OC(C)=O)cc3O[C@H]2c2cc(OC(C)=O)c(OC(C)=O)c(OC(C)=O)c2)c1 (relative stereo) [Compound 2a, (2S*,3R*)-trans-5,7-Bis(acetyloxy)-2-[3,4,5-tris(acetyloxy)phenyl]chroman-3-yl 3-acetyloxybenzoate] | Accumulation of p27 | 99 | induced apoptosis-specific PARP cleavage | 50 | 70 | dramatic round-up, detachment, and cellular fragmentation | greatest increase | 73 | most potent inhibitors of colony formation | 92 | markedly induced apoptosis | only Jurkat cells underwent apoptosis
